Experimental data: US9469656B2, “HDAC inhibitors as anti-cancer agents” (The University of Toledo, priority 2014, dated 2016)

Experiments:
PC-3 = conditions: cited from earlier work
HDAC isoforms = conditions: cited from earlier work
LNCaP = conditions: cited from earlier work
[1] = test system: NCI 60 cell line assay (leukemia, non-small cell lung cancer, colon cancer, CNS cancer, melanoma, ovarian cancer, renal cancer, prostate cancer, and breast …); assay: NCI 60 cell line assay, cell proliferation inhibition; format: cell-based, human; conditions: for anti-proliferative activity compared with largazole: 5 μM concentration; for inhibition of cell survival compared with largazole: at 5 μM; for inhibitory activity compared with largazole: at lower concentrations (below 5 μM)
Protocol: Understanding how these compounds affect cellular HDAC activity is important. Therefore, the biological effects of all these analogues were evaluated. As described in the examples, the analogues JA1-JA6, AA1-AA2, and RF1 were tested in the NCI 60 cell line assay, which includes leukemia, non-small cell lung cancer, colon cancer, CNS cancer, melanoma, ovarian cancer, renal cancer, prostate cancer, and breast cancer cell lines. […] The analogues were tested in the NCI 60 cell line assay using standard assay protocol. The NCI 60 cell line assay includes leukemia, non-small cell lung cancer, colon cancer, CNS cancer, melanoma, ovarian cancer, renal cancer, prostate cancer, and breast cancer cell lines. Results of the cell proliferation inhibition studies at a single dose of 10 μM are shown in FIGS. 16-21, and FIGS. 26-27, and results of the dose response studies for JA1, JA2, and J3 are shown in FIGS. 22-24. FIGS. 26-27 show the results of single dose response evaluations of AA1 and AA2, respectively, in the NCI 60 cell line assay.

| SMILES | anti-proliferative activity compared with largazole [1] | inhibition of cell survival compared with largazole [1] | inhibitory activity compared with largazole [1] | also measured |
| --- | --- | --- | --- | --- |
| CCCCCCCC(=O)SCCC=CC1CC(=O)NCc2nc(cs2)C2=NC(C)(CS2)C(=O)NC(C(C)C)C(=O)O1 (centres unmarked) [C-2 epimer of largazole] |  |  |  | inhibition of viability compared with largazole (PC-3): more potent than largazole; inhibitory potency against HDAC isoforms (HDAC isoforms): sub-micromolar; inhibition of viability compared with largazole (LNCaP): more potent than largazole |
| CCCCCCCC(=O)SCC/C=C/[C@@H]1CC(=O)NCCOCCOCC(=O)N[C@@H](C(C)C)C(=O)O1 [JA1] | equivalent to largazole | nearly as effectively as largazole | less inhibitory activity |  |
| CCCCCCCC(=O)SCC/C=C/[C@@H]1CC(=O)NCc2cccc(n2)-c2cccc(n2)C(=O)N[C@@H](C(C)C)C(=O)O1 [JA2] |  |  |  | potency rank among the analogues [1]: most potent analogue; anti-proliferative activity compared to largazole ([1]; at concentrations greater than 0.1 μM): higher anti-proliferative activity compared to largazole |
| CCCCCCCC(=O)SCC/C=C/[C@@H]1CC(=O)NCc2cccc(n2)CN(C)CC(=O)N[C@@H](C(C)C)C(=O)O1 [JA3] | equivalent to largazole | nearly as effectively as largazole | less inhibitory activity |  |
